From patent US4616015A, “Triazine derivatives, and pharmaceutical compositions comprising the same” (Fujisawa Pharmaceutical Co., Ltd., priority 1983, dated 1986) come the findings set out here.

Structures can show the parent of a compound that is named as a salt.

In one assay the test system is blood pressure. Nature of the assay: Antihypertensive activity (test A): maximum decrease of blood pressure in uninephrectomized DOCA/saline hypertensive rats, oral. The class given is in vivo, male Wister rats. Here is the method:
Five-week old male Wister rats were uninephrectomized under anesthesia. Deoxycorticosterone acetate (DOCA) (30 mg/kg), suspended in peanut oil, was injected subcutaneously twice a week and 1% saline was substituted for the drinking water. Animals with mean blood pressure 150-200 mmHg were used for experiment between 5 and 7 weeks after surgery.
The test compounds were administered orally. Blood pressure was measured at the femoral artery by means of a pressure transducer and recorded as electrically integrated values of mean arterial pressure.

For assay [1], the system named is platelet aggregation. Nature of the assay: Inhibition of platelet aggregation induced by collagen, platelet rich plasma (test B). The class given is cell-based. To be noted: Oryctolagus cuniculus, inducer collagen (2.5 μg/ml), rabbit PRP, 37° C., read-out: ID50, platelet aggregation, collagen. How it is done:
(§1) Platelet rich plasma (PRP) which contains 6.5-7.5×10^8 platelet/ml was prepared from rabbit blood. To the 200 μl of PRP, 5 μl of calcium chloride (1 mM) and 50 μl of pH 7.4 Tris-acetate solution (5 mM) containing 120 mM NaCl and test compound were added successively, and then stirred for 2 min. at 37° C. To the solution, 5 μl of adenosine diphosphate (ADP) (2.5 μM) or collagen (2.5 μg/ml) was added as an aggregation inducer. Aggregation was measured by using an aggregometer (NKK HEMA TRACER 1).

Assay [2] deals with platelet aggregation. Nature of the assay: Inhibition of platelet aggregation induced by ADP, platelet rich plasma (test B). The class given is cell-based. The note with it: Oryctolagus cuniculus, inducer ADP (2.5 μM), rabbit PRP, 37° C., read-out: ID50, platelet aggregation, ADP. How it is done:
as §1

Another assay deals with ethanol ulcer. The assay is described as follows: Ethanol ulcer, area of ulcers (test C). The class given is in vivo, male Sprague-Dowley rats. The note with it: dose c: 32 mg/kg, oral, 30 minutes before ethanol. How it is done:
Five male Sprague-Dowley rats, aged 7 weeks and weighing about 200 g, were used per group for the study on ethanol ulcer after the fast for 24 hours.
Test compound was suspended in 0.1% methylcellulose aqueous solution, and the suspension (5 ml/kg) was orally given to each rat.
The control group was given a vehicle, i.e. 0.1% methylcellulose aqueous solution (5 ml/kg), alone in the same way.
Absolute ethanol (5 ml/kg) was orally administered 30 minutes after dosing with test compound, and one hour later, the rats were sacrificed and their stomachs were removed. The area of ulcers of each rat was measured. The mean area (mm^2) in the medicated group was compared with that in the control group.

For the compound `CC(Cl)C(=O)Nc1ccc(C2=NNC(=O)NC2C)cc1` (stereo not drawn) [5-(7), 6-[4-(2-Chloropropionylamino)phenyl]-5-methyl-4,5-dihydro-1,2,4-triazin-3(2H)-one], the “Effect Max (mean ratio of maximum decrease of blood pressure)” value worked out at 18.7% in the assay with blood pressure (dose a: 0.1 mg/kg) and 51.8% with blood pressure (dose b: 1 mg/kg).

As to `CC(=O)C(=O)Nc1ccc(C2=NNC(=O)NC2C)cc1` (stereo not drawn) [5-(19), 6-(4-Pyruvoylaminophenyl)-5-methyl-4,5-dihydro-1,2,4-triazin-3(2H)-one], the IC50 came out at 5.3 nM with platelet aggregation [1] and 110 nM in the assay with platelet aggregation [2].

For `CC1NC(=O)NN=C1c1ccc(NC(=O)[C@@H](C)O)cc1` (stereo partly drawn) [13-(3), 6-(4-D-Lactoylaminophenyl)-5-methyl-4,5-dihydro-1,2,4-triazin-3(2H)-one], the results for the IC50 in the assay on platelet aggregation [1] and in the assay on platelet aggregation [2] were 150 nM and 320 nM, respectively. For the same compound, the “Effect Max (mean ratio of maximum decrease of blood pressure)” value in the assay with blood pressure (dose a: 0.1 mg/kg) is given as 22%; in the assay with blood pressure (dose b: 1 mg/kg), 50%.

For the compound `CC1NC(=O)NN=C1c1ccc(NC(=O)CCC(=O)O)cc1` (stereo not drawn) [13-(4), Sodium 3-[4-(3-methyl-4,5-dihydro-3(2H)-oxo-1,2,4-triazin-6-yl)phenylcarbamoyl]propionate], the “Effect Max (ulcer area vs control)” value with ethanol ulcer is on record as 67.0%.

Turning to `CC1NC(=O)NN=C1c1ccc(NCCCN)cc1` (stereo not drawn) [21-(1), 6-[4-(3-aminopropylamino)phenyl]-5-methyl-4,5-dihyro-1,2,4-triazin-3(2H)-one], the values for the IC50 with platelet aggregation [1] and in the assay on platelet aggregation [2] were 47 nM and 190 nM, respectively.

Regarding `C=CC(=O)Nc1ccc(C2=NNC(=O)NC2C)cc1` (stereo not drawn) [22-(1), 6-(4-Acryloylaminophenyl)-5-methyl-4,5-dihydro-1,2,4-triazin-3(2H)-one], the IC50 in the assay on platelet aggregation [1] amounted to 16 nM; with platelet aggregation [2], 68 nM.

Regarding `CC1NC(=O)NN=C1c1ccc(NC(=O)CN)cc1` (stereo not drawn) [Example 29, 6-(4-glycyclaminophenyl)-5-methyl-4,5-dihydro-1,2,4-triazin-3(2H)-one hydrochloride], the “Effect Max (mean ratio of maximum decrease of blood pressure)” value in the assay on blood pressure (dose a: 0.1 mg/kg) was determined as 11.1%; in the assay with blood pressure (dose b: 1 mg/kg), 47.5%.
